Tests used:
N/TERT-1 keratinocytes = experiment: Cell viability of N/TERT-1 keratinocytes (NLRP1 inflammasome); format: cell-based, human; conditions: VbP 10 μM, CQ compounds 20 μM, 24 h, CTG
Protocol: Cell Culture. HEK293T, THP-1, RAW264.7 cells were purchased from ATCC. MV4;11, OCI-AML2 cells were purchased from DSMZ. N/TERT1 cells were a gift from the Rheinwald Lab (Dickson et al., 2000). HEK293T and RAW264.7 cells were grown in Dulbecco's Modified Eagle's Medium (DMEM) with L-glutamine and 10% fetal bovine serum (FBS). N/TERT1 cells were grown in Keratinocyte serum free medium (KSFM) supplemented with 1× penicillin/streptomycin, bovine pituitary extract (25 μg/ml) and epidermal growth factor (EGF) (0.2 ng/ml). All other cell lines were grown in Roswell Park Memorial Institute (RPMI) medium 1640 with L-glutamine and 10% fetal bovine serum (FBS). All cells were grown at 37° C. in a 5% CO2 atmosphere incubator. Cell lines were regularly tested for mycoplasma using the MycoAlert™ Mycoplasma Detection Kit (Lonza).
(§1) CellTiter-Glo cell viability and CytoTox-Fluor cell death assays. Cells were plated (2,000 cells per well) in white, 384-well clear-bottom plates (Corning) using an EL406 Microplate Washer/Dispenser (BioTek) in 25 μL final volume of medium. To the cell plates were added compounds at different concentrations using a pintool (CyBio) and the plates were allowed to incubate in the incubator. After incubation for indicated times, CytoTox-Fluor reagent (Promega, G9262) was added according to the manufacturer's protocol. The assay plates were then incubated for another 30 min before fluorescence was recorded using a Cytation 5 Cell Imaging Multi-Mode Reader (BioTek). Next, CellTiter-Glo reagent (Promega, G7573) was subsequently added to the assay plates following the manufacturer's protocol. Assay plates were shaken on an orbital shaker for 2 min and incubated at 25° C. for 10 min. Luminescence was then read using a Cytation 5 Cell Imaging Multi-Mode Reader (BioTek).

[1] = tested on: primary bone marrow-derived macrophages (BMDMs) and mouse RAW264.7 cells; experiment: LDH release and GSDMD cleavage in BMDMs and RAW264.7 cells (mouse NLRP1); format: cell-based; conditions: VbP 10 μM, CQ31/CQ80 20 μM, 24 h
Protocol: Mouse BMDM isolation and culture. Bone marrow was harvested from the femurs and tibias of 7-12-week-old C57BL/6J mice. Briefly, femurs and tibias were harvested from mice and crushed with a mortar and pestle in cold 1×PBS supplemented with 2.5% FBS. The mixture was passed through a 70-μm nylon cell strainer. RBCs were lysed for 4-5 min on ice in 1×RBC lysis buffer (Biolegend) and cells were centrifuged at 300×g for 5 min at 4° C. The cell pellet was washed in cold 1×PBS supplemented with 2.5% FBS before being passed again through in a 70-μm nylon cell strainer and counted. Counted cells were plated on non-tissue culture 10-cm plates at 5-10×10^6 cells per plate in DMEM supplemented with 10% FBS and 15-20% L-cell media. Cells were incubated at 37° C. for 6 days before replating and assaying as indicated.
LDH cytotoxicity and immunoblotting assays. HEK293T cells were transiently transfected and treated with inhibitors as indicated. MV4;11, OCI AML2, THP-1, and RAW264.7 cells were plated in 12-well culture plates at 5×10^5 cells/well and treated as indicated. Supernatants were analyzed for LDH activity using the Pierce LDH Cytotoxicity Assay Kit (Life Technologies). LDH activity was quantified relative to a lysis control where cells were lysed in 80 μL of a 9% Triton X-100 solution. For immunoblotting, cells were washed 2× in PBS (pH=7.4), resuspended in PBS, and lysed by sonication. Protein concentrations were determined and normalized using the DCA Protein Assay kit (Bio-Rad). The samples were separated by SDS-PAGE, immunoblotted, and visualized using the Odyssey Imaging System (Li-Cor).

recombinant human PEPD = recombinant human PEPD (Homo sapiens (Human), UniProt P12955); experiment: PEPD substrate assay (Ala-Pro cleavage, L-alanine assay kit); format: biochemical; conditions: 50 nM recombinant human PEPD, Ala-Pro 40 μM, 25° C.
Protocol: Protein purification. Human prolidase (PEPD) was generated and purified. XPNPEP1 in pET15-b containing a 6× His tag was expressed in E. coli Rosetta DE3 cells.
Substrate assays. For the PEPD assay, a solution of substrate (Ala-Pro) was prepared in DMSO. 24 μL of 50 nM recombinant human PEPD were added to a 384-well, black, clear-bottom plate (Corning) with 1 μL dipeptide Ala-Pro (final conc. 40 μM). […] For the AMC reporter assays, experiments were performed with cell lysates. 5 μL solution of substrate (2.5 mM Ala-AMC) was added the mixture of 10 μL HEK293T cell lysates (2.5 mg/ml) and 10 μL of indicated compounds in a 384-well, black, clear-bottom plate (Corning) to initiate the reaction. Substrate cleavage was measured as increasing fluorescence signal (Ex/Em: 380/460 nm) recorded at 25° C. for 20 mins. […] H-Lys(abz)-Pro-Pro-pNA substrate was added to a final concentration of 100 μM, and fluorescence was monitored (Ex/Em: 320/410) for 60 mins.

XPNPEP1 = XPNPEP1 (Homo sapiens (Human), UniProt Q9NQW7); experiment: XPNPEP1 substrate assay (H-Lys(abz)-Pro-Pro-pNA); format: biochemical; conditions: XPNPEP1 3.5 nM, substrate 100 μM, 60 mins
Protocol: Protein purification. Human prolidase (PEPD) was generated and purified. XPNPEP1 in pET15-b containing a 6× His tag was expressed in E. coli Rosetta DE3 cells. Cells were induced with IPTG for 16 h at 37° C., pelleted and lysed in buffer A (20 mM Tris-HCl (pH 7.9), 500 mM NaCl, and 10% (v/v) glycerol) by sonication. Affinity purification chromatography was performed using TALON resin and according to previously published protocols (Li et al., 2008).
Substrate assays. For the PEPD assay, a solution of substrate (Ala-Pro) was prepared in DMSO. 24 μL of 50 nM recombinant human PEPD were added to a 384-well, black, clear-bottom plate (Corning) with 1 μL dipeptide Ala-Pro (final conc. 40 μM). Alanine liberated was measured as increasing fluorescence signal (Resorufin, Ex/Em: 535/587 nm) recorded at 25° C. using an L-alanine assay kit (Abcam, ab83394) at 25° C. according to manufacturer's instructions. For the AMC reporter assays, experiments were performed with cell lysates. 5 μL solution of substrate (2.5 mM Ala-AMC) was added the mixture of 10 μL HEK293T cell lysates (2.5 mg/ml) and 10 μL of indicated compounds in a 384-well, black, clear-bottom plate (Corning) to initiate the reaction. Substrate cleavage was measured as increasing fluorescence signal (Ex/Em: 380/460 nm) recorded at 25° C. for 20 mins. For XPNPEP1 enzymes (XPNPEP1 3.5 nM) were plated on a black 384-well clear bottom plate and treated with the indicated doses of compounds. H-Lys(abz)-Pro-Pro-pNA substrate was added to a final concentration of 100 μM, and fluorescence was monitored (Ex/Em: 320/410) for 60 mins.

MV4;11 WT cells = experiment: CellTiter-Glo cell viability, WT MV4;11 cells; format: cell-based; conditions: Homo sapiens, MV4-11; 24 h, CTG
Protocol: as §1

MV4;11 CASP1-/- cells = experiment: CellTiter-Glo cell viability, CASP1-/- MV4;11 cells; format: cell-based; conditions: Homo sapiens, MV4-11; 24 h, CTG
Protocol: Cloning. CASP1^−/− MV4;11 cells^12; CARD8^−/− MV4;11, THP-1, OCI-AML2 cells^14; DPP8/9^−/− THP-1^12; PEPD^−/−, XPNPEP1^−/−, PEPD XPNPEP1^−/− THP-1 cells were generated. Plasmids for CARD8 variants, CASP1, GSDMD, dTAG-CARD8^ZUC were cloned as described previously (Hollingsworth et al., 2021; Johnson et al., 2018; Sharif et al., 2021).
as §1

OCI-AML2 cells = experiment: Propidium iodide uptake, OCI-AML2 cells; format: cell-based; conditions: 6.25 μM, compared to CQ31
Protocol: Propidium iodideflux analysis. 2×10^4 MV4;11 or OCI-AML2 cells were plated in 384-well, black, clear-bottom plate (Corning) in RPMI medium. Cells were then treated as indicated and propidium iodide (PI) was added at a final concentration of 10 μM. PI fluorescence was measured at (Ex/Em: 535/617 nm) recorded at 37° C. every 5 mins in a Cytation 5 Cell Imaging Multi-Mode Reader (BioTek). The obtained measurements were baseline corrected to vehicle/DMSO and normalized to maximum response.

recombinant human PEPD, sequence (P12955 whole entry): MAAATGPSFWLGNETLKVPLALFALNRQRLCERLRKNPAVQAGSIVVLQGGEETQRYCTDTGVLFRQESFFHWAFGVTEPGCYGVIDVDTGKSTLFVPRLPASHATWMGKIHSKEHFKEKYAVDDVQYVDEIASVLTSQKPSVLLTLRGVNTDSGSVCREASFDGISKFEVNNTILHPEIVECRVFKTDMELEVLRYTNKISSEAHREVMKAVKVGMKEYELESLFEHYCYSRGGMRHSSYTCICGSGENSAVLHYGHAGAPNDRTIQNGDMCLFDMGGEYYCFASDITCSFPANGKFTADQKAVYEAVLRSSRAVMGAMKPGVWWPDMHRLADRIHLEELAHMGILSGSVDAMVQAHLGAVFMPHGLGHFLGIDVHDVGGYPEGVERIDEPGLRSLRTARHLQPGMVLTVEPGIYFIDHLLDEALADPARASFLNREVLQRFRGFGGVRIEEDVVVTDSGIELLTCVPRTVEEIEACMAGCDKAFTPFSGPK
XPNPEP1, sequence (Q9NQW7 whole entry): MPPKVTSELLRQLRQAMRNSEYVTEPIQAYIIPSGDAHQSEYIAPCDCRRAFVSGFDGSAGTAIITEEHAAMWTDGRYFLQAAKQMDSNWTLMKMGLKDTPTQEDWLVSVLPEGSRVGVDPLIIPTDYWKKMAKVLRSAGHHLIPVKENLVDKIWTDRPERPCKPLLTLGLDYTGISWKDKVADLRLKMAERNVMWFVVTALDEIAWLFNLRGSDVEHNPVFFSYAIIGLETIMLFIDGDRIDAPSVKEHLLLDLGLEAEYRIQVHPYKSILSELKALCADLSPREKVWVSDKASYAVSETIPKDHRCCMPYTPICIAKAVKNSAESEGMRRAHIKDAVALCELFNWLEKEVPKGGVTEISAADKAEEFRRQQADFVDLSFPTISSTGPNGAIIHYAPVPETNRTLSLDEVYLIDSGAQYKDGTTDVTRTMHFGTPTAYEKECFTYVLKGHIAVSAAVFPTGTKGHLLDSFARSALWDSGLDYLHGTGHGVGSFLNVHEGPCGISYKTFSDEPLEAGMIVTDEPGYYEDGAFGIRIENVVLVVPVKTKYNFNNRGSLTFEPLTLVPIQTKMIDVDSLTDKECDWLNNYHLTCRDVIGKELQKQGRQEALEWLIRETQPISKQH

SMILES: CC(C)[C@H](N)C(=O)N1CCC[C@H]1B(O)O [VbP, Val-boroPro, reference compound]
- cell death in N/TERT-1 keratinocytes (N/TERT-1 keratinocytes): induced cell death
- pyroptosis (LDH release and GSDMD cleavage) [1]: induced pyroptosis

SMILES: COC(=O)[C@@H](NC(=O)[C@@H]1CCCN1C(=O)[C@@H](O)[C@H](N)CC(C)C)C(C)C [CQ78, Methyl ((2S,3R)-3-amino-2-hydroxy-5-methylhexanoyl)-L-prolyl-L-valinate]
- IC50 (recombinant human PEPD): 1200 nM
- IC50 (XPNPEP1): 41000 nM
- IC50 (MV4;11 WT cells): 450 nM
- IC50 (MV4;11 CASP1-/- cells): > 20000 nM
- lytic cell death by uptake of propidium iodide (OCI-AML2 cells): more rapid lytic cell death

From US20250368624A1, “M24B AMINOPEPTIDASE INHIBITORS FOR CARD8 INFLAMMASOME ACTIVATION” (Memorial Sloan-Kettering Cancer Center, priority 2022, published 2025)
